Measured values taken from article PMC5384750 (PLoS ONE, 2017).

Key:
[1] = target: T1, recombinant IDE (rIDE) (Rattus norvegicus, UniProt P35559); experiment: Inhibition of rIDE-mediated degradation of sp6BY; type: biochemical; conditions: 10 ng rIDE, 10 ng sp6BY, 30 min, 37°C; TPEN 1 mM, NEM 1 mM, insulin 100 μg/ml
T1 construct: purchased Calbiochem
Description: Fig 6 IDE is sufficient and required for the in vitro degradation of sp6 and vp6. (A) 10 ng sp6BY were incubated with 5 μg S10 extract from HeLa cells, either untransfected or transfected with control or IDE-specific siRNA, for 0, 10, 30 or 90 min at 37°C. (B) sp6BY was detected by fluorescence emission and quantified. (C) VLP lysates from HEK293T cells were incubated with S10 from siRNA treated cells described in A. Viral proteins were detected as described in Fig 1. (D) Western blot analyses of the S10 extract used in A and C. The membrane was stained with antibodies specific for IDE, HSP70, and β-actin. […] (F) VLP lysates were incubated with 10 ng rIDE for 30 min.
(§1) Typically 5 μg S10 were incubated with inhibitor or buffer and 20–100 ng sp6 at 37°C for 30 min. Reactions were stopped by addition of sample buffer and incubation at 95°C for 5 min. Remaining p6 was detected by Western blotting using an anti-p6 rabbit antiserum. Alternatively, 10 ng of BODIPY FL-labeled sp6 (sp6BY) were used as substrate and detected directly in the polyacrylamide gel by fluorescence scanning. In some experiments the amount of p6 was densitometrically quantified with the software AIDA (Raytest). For the in vitro degradation of amyloid-β 10 ng of Aβ-FITC (abcam) were used analogously to sp6BY. For the in vitro degradation of viral p6, VLPs were pelleted and lysed in IDE enzyme buffer (150 mM NaCl, 50 mM Tris pH 7.4, 0.5% (v/v) Triton X-100). The p6 content was estimated by Western blotting using a dilution series of sp6 with known concentrations. Equivalents of 15 ng were used for digestion experiments and subsequently detected by Western blotting. Experiments carried out with recombinant IDE (Calbiochem) were performed in IDE enzyme buffer. Recombinant FITC-labeled insulin was purchased from Sigma.

[2] = target: T2, insulin-degrading enzyme (IDE) (Homo sapiens, UniProt P14735); experiment: Inhibition of / competition with sp6 or sp6BY degradation in S10 extract; type: biochemical; conditions: 30 min, 37°C; for stabilization of sp6BY by known IDE-inhibitors: 10 ng sp6BY, 5 μg S10 extract, increasing concentrations, fluorescence, at least three independent experiments (S2 Fig); for stabilization of sp6 by protease inhibitor (initial screen): 100 ng sp6, 5 μg S10 extract, Western blot, 1.3 mM EDTA, 130 μM Bestatin, 600 nM Phosphoramidon
T2 construct: endogenous in cells; host or cells: HeLa cells (cytosolic S10 extract)
T2 sequence (P14735 whole entry): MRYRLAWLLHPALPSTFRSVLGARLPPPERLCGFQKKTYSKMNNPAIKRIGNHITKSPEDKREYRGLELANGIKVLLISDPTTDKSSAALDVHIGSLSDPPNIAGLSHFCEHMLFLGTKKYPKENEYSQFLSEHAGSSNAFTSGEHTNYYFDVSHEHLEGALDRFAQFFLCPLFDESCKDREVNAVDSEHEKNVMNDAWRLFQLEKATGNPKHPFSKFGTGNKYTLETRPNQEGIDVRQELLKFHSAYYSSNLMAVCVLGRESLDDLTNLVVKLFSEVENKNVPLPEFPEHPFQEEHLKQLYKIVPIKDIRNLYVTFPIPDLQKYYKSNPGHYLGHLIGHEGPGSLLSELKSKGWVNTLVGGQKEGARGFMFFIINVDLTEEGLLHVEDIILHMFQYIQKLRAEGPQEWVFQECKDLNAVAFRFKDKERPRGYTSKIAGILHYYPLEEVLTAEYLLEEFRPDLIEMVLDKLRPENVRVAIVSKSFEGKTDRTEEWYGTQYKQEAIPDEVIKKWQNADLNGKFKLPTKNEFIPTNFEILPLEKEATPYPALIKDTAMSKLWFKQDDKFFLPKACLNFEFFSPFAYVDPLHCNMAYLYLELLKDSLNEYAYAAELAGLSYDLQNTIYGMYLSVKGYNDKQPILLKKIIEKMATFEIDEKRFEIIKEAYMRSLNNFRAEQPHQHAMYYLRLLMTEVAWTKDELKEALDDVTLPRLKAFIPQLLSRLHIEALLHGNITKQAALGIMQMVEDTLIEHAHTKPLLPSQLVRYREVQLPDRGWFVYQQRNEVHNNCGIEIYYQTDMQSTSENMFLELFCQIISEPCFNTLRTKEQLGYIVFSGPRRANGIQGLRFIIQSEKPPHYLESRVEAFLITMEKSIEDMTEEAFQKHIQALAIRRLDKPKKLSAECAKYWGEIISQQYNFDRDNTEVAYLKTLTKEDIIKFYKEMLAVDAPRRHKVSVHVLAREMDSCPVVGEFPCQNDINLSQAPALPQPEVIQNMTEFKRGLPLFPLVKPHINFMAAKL
Description: (§2) For generation of S10, confluent dishes with HeLa cells were extensively washed and subsequently lysed with a modified S10 buffer (250 mM sucrose, 80 mM KCl, 10 mM Tris pH 7.6, 0.1% (v/v) Triton X-100 [91]). Debris and nuclei were removed by centrifugation at 10.000 × g for 10 min. Protein content was determined by BCA-Assay (Pierce) and aliquots stored at -80°C.
as §1, with “Reactions” for “Typically 5 μg S10 were incubated with inhibitor or buffer and 20–100 ng sp6 at 37°C for 30 min. Reactions”, “buffer.” for “buffer. Recombinant FITC-labeled insulin was purchased from Sigma.”
Bestatin, Chymostatin, E-64, Leupeptin, Pepstatin, Phosphoramidon, Pefabloc SC, EDTA, Aprotinin, Antipain were purchased from Roche as part of a protease inhibitors set and used at the following concentrations: 74 μM Antipain; 130 μM Bestatin; 100 μM Chymostatin; 28 μM E-64; 1 μM Leupeptin; 1 μM Pepstatin; 600 nM Phosphoramidon; 4 mM Pefabloc SC; 1.3 mM EDTA; […]. […] (Phoenix Pharmaceuticals and Tocris), TPEN (Calbiochem), and NEM (Roche) were purchased from companies indicated.

[3] = In vitro degradation in cytosolic S10 HeLa cell extract; type: in vitro ADME; conditions: 10 ng sp6BY E0A or vp6 S40F, S14N, K27/33R; 5 μg S10 extract, 37°C; fluorescence or Western blot; three independent experiments (S1B Fig)
Description: as §2, §1

[4] = cytosolic S10 HeLa cell extract (S10); conditions: 37°C, up to 60 min
[5] = system: purified mammalian IDE; conditions: cited from earlier work

T1 sequence (P35559 whole entry): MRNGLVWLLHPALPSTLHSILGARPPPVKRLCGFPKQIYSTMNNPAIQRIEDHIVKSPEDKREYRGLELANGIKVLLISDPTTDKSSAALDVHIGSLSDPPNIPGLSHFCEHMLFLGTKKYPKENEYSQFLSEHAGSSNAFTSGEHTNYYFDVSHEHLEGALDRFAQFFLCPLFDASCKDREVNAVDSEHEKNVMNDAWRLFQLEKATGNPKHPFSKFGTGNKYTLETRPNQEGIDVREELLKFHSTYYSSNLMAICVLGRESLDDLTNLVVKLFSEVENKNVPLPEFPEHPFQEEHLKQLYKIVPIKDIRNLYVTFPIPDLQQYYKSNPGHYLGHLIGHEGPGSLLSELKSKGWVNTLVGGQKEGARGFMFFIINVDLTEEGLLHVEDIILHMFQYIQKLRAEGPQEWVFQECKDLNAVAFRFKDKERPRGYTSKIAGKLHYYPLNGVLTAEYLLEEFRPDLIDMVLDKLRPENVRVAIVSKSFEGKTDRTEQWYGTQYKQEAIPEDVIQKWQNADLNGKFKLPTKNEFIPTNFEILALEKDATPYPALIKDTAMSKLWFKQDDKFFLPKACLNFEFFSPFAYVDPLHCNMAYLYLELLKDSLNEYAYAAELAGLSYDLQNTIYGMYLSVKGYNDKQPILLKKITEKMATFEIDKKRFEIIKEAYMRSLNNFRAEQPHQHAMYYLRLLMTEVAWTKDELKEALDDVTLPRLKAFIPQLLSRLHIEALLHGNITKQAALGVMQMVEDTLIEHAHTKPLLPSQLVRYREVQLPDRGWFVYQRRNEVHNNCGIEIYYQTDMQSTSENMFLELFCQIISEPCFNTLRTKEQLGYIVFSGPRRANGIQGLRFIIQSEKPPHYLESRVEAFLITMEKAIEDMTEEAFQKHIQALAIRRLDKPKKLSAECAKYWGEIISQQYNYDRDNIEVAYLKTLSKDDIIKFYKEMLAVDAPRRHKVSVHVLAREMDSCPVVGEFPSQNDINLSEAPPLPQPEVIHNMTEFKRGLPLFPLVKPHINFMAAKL

With `CCN1C(=O)C=CC1=O` [NEM, N-ethylmaleimide] the “stabilization of sp6 in the presence of rIDE” value [1] was “stabilized sp6” and the “stabilization of sp6BY by known IDE-inhibitors” value [2] was “prevented the degradation of p6”.

With `CC[C@H](C)[C@H](NC(=O)[C@@H]1CCCN1C(=O)[C@H](CCC(=O)O)NC(=O)[C@H](CCC(N)=O)NC(=O)[C@H](CCCNC(=N)N)NC(=O)[C@H](CCC(N)=O)NC(=O)[C@H](CO)NC(=O)[C@@H]1CCCN1C(=O)[C@@H](NC(=O)[C@@H](NC(=O)[C@@H](NC(=O)[C@H](CCC(=O)O)NC(=O)[C@H](CCC(=O)O)NC(=O)CNC(=O)[C@H](Cc1ccccc1)NC(=O)[C@H](CCCNC(=N)N)NC(=O)[C@H](Cc1ccccc1)NC(=O)[C@H](CO)NC(=O)[C@H](CCC(=O)O)NC(=O)[C@H](CCC(=O)O)NC(=O)[C@@H]1CCCN1C(=O)[C@@H]1CCCN1C(=O)[C@H](C)NC(=O)[C@@H](NC(=O)[C@@H]1CCCN1C(=O)[C@H](CCC(=O)O)NC(=O)[C@@H]1CCCN1C(=O)[C@H](CCCNC(=N)N)NC(=O)[C@H](CO)NC(=O)[C@H](CCC(N)=O)NC(=O)[C@@H](N)CC(C)C)[C@@H](C)O)[C@@H](C)O)[C@@H](C)O)[C@@H](C)O)C(=O)N[C@@H](CC(=O)O)C(=O)N[C@@H](CCCNC(=N)N)C(=O)N[C@@H](CCC(=O)O)C(=O)N[C@@H](CC(C)C)C(=O)N[C@@H](Cc1ccc(O)cc1)C(=O)N1CCC[C@H]1C(=O)N[C@@H](CC(C)C)C(=O)N[C@@H](C)C(=O)N[C@@H](CO)C(=O)N[C@@H](CC(C)C)C(=O)N[C@@H](CCCNC(=N)N)C(=O)N[C@@H](CO)C(=O)N[C@@H](CC(C)C)C(=O)N[C@@H](Cc1ccccc1)C(=O)NCC(=O)N[C@@H](CO)C(=O)N[C@@H](CC(=O)O)C(=O)N1CCC[C@H]1C(=O)N[C@@H](CO)C(=O)N[C@@H](CO)C(=O)N[C@@H](CCC(N)=O)C(=O)O` [K27/33R] the “degradation efficiency of HIV-1NL4-3 p6 mutants in S10 extract” value (“degradation efficiency” below) [3] was “wt degradation efficiency”.

In the case of Bacitracin, the “stabilization of sp6BY by known IDE-inhibitors” value [2] is reported as “prevented the degradation of p6”.

For `CC(C)C[C@H](NP(=O)(O)O[C@@H]1O[C@@H](C)[C@H](O)[C@@H](O)[C@H]1O)C(=O)N[C@@H](Cc1c[nH]c2ccccc12)C(=O)O` [Phosphoramidon], the “stabilization of sp6 by protease inhibitor (initial screen)” value [2] was “failed to stabilize p6”.

With `c1ccc(CN(CCN(Cc2ccccn2)Cc2ccccn2)Cc2ccccn2)nc1` [TPEN] the “stabilization of sp6 in the presence of rIDE” value [1] was “stabilized sp6”.

With “PMAQVHQGLMPTAPPEDPAVDLLKNYMQLGKQQREKQRESREKPYKEVTEDLLHLNSLFGGDQ” the not cleaved [4] was “no degradation observed (up to 60 min)”.

For amyloid-β [Aβ], the kcat ([5]; purified mammalian IDE) is listed as 0.875 s⁻¹ and the Km ([5]; rounded value) is listed as 1.2 µM.

With `CC[C@H](C)[C@H](NC(=O)[C@@H]1CCCN1C(=O)[C@H](CCC(=O)O)NC(=O)[C@H](CCC(N)=O)NC(=O)[C@H](CCCCN)NC(=O)[C@H](CCC(N)=O)NC(=O)[C@H](CO)NC(=O)[C@@H]1CCCN1C(=O)[C@@H](NC(=O)[C@@H](NC(=O)[C@@H](NC(=O)[C@H](CCC(=O)O)NC(=O)[C@H](CCC(=O)O)NC(=O)CNC(=O)[C@H](Cc1ccccc1)NC(=O)[C@H](CCCNC(=N)N)NC(=O)[C@H](Cc1ccccc1)NC(=O)[C@H](CO)NC(=O)[C@H](CCC(=O)O)NC(=O)[C@H](CCC(=O)O)NC(=O)[C@@H]1CCCN1C(=O)[C@@H]1CCCN1C(=O)[C@H](C)NC(=O)[C@@H](NC(=O)[C@@H]1CCCN1C(=O)[C@H](CCC(=O)O)NC(=O)[C@@H]1CCCN1C(=O)[C@H](CCCNC(=N)N)NC(=O)[C@H](CO)NC(=O)[C@H](CCC(N)=O)NC(=O)[C@@H](N)CC(C)C)[C@@H](C)O)[C@@H](C)O)[C@@H](C)O)[C@@H](C)O)C(=O)N[C@@H](CC(=O)O)C(=O)N[C@@H](CCCCN)C(=O)N[C@@H](CCC(=O)O)C(=O)N[C@@H](CC(C)C)C(=O)N[C@@H](Cc1ccc(O)cc1)C(=O)N1CCC[C@H]1C(=O)N[C@@H](CC(C)C)C(=O)N[C@@H](C)C(=O)N[C@@H](Cc1ccccc1)C(=O)N[C@@H](CC(C)C)C(=O)N[C@@H](CCCNC(=N)N)C(=O)N[C@@H](CO)C(=O)N[C@@H](CC(C)C)C(=O)N[C@@H](Cc1ccccc1)C(=O)NCC(=O)N[C@@H](CO)C(=O)N[C@@H](CC(=O)O)C(=O)N1CCC[C@H]1C(=O)N[C@@H](CO)C(=O)N[C@@H](CO)C(=O)N[C@@H](CCC(N)=O)C(=O)O` [S40F] the “degradation efficiency” value [3] was “wt degradation efficiency”.

With `Nc1ncnc2c1ncn2[C@@H]1O[C@H](COP(=O)(O)OP(=O)(O)OP(=O)(O)O)[C@@H](O)[C@H]1O` [ATP] the “stabilization of sp6BY by known IDE-inhibitors” value [2] was “prevented the degradation of p6”.

In the case of “PVAQVPQGLTPTAPPVDPAVDLLEKYMQQGKRQREQRERPYKEVTEDLLHLEQGETPYREPPTEDLLHLNSLFGKDQ”, the not cleaved [4] is reported as “no degradation observed (up to 60 min)”.

For `O=C(O)CN(CCN(CC(=O)O)CC(=O)O)CC(=O)O` [EDTA], the “stabilization of sp6 by protease inhibitor (initial screen)” value [2] was “could stabilize sp6”.

With “PIQQKSQHNKSVVQETPQTQNLYPDLSEIKKEYNVKEKDQVEDLNLDSLWE” the not cleaved [4] was “no degradation observed (up to 60 min)”.

For `CC(C)C[C@H](NC(=O)[C@@H](O)[C@H](N)Cc1ccccc1)C(=O)O` [Bestatin], the “stabilization of sp6 by protease inhibitor (initial screen)” value [2] was “did not stabilize p6”.

In the case of `CC[C@H](C)[C@H](NC(=O)[C@@H]1CCCN1C(=O)[C@H](CCC(=O)O)NC(=O)[C@H](CCC(N)=O)NC(=O)[C@H](CCCCN)NC(=O)[C@H](CCC(N)=O)NC(=O)[C@H](CO)NC(=O)[C@@H]1CCCN1C(=O)[C@@H](NC(=O)[C@@H](NC(=O)[C@@H](NC(=O)[C@H](CCC(=O)O)NC(=O)[C@H](CCC(=O)O)NC(=O)CNC(=O)[C@H](Cc1ccccc1)NC(=O)[C@H](CCCNC(=N)N)NC(=O)[C@H](Cc1ccccc1)NC(=O)[C@H](CC(N)=O)NC(=O)[C@H](CCC(=O)O)NC(=O)[C@H](CCC(=O)O)NC(=O)[C@@H]1CCCN1C(=O)[C@@H]1CCCN1C(=O)[C@H](C)NC(=O)[C@@H](NC(=O)[C@@H]1CCCN1C(=O)[C@H](CCC(=O)O)NC(=O)[C@@H]1CCCN1C(=O)[C@H](CCCNC(=N)N)NC(=O)[C@H](CO)NC(=O)[C@H](CCC(N)=O)NC(=O)[C@@H](N)CC(C)C)[C@@H](C)O)[C@@H](C)O)[C@@H](C)O)[C@@H](C)O)C(=O)N[C@@H](CC(=O)O)C(=O)N[C@@H](CCCCN)C(=O)N[C@@H](CCC(=O)O)C(=O)N[C@@H](CC(C)C)C(=O)N[C@@H](Cc1ccc(O)cc1)C(=O)N1CCC[C@H]1C(=O)N[C@@H](CC(C)C)C(=O)N[C@@H](C)C(=O)N[C@@H](CO)C(=O)N[C@@H](CC(C)C)C(=O)N[C@@H](CCCNC(=N)N)C(=O)N[C@@H](CO)C(=O)N[C@@H](CC(C)C)C(=O)N[C@@H](Cc1ccccc1)C(=O)NCC(=O)N[C@@H](CO)C(=O)N[C@@H](CC(=O)O)C(=O)N1CCC[C@H]1C(=O)N[C@@H](CO)C(=O)N[C@@H](CO)C(=O)N[C@@H](CCC(N)=O)C(=O)O` [S14N], the “degradation efficiency” value [3] is reported as “wt degradation efficiency”.
